What was measured:
[1] = target: T1, biotinylated wild-type menin and MLL-AF9 fusion protein (menin/MLL binding) (Homo sapiens, UniProt O00255); test: Assay 1: menin/MLL binding AlphaLISA assay, wild-type menin; settings: Table 30; column head does not say wild-type or mutated menin
T1 construct: made in house; host or cells: menin: E. coli; MLL-AF9-FLAG: HEK293 cells, used as cleared lysate
T1 sequence (O00255 1-610): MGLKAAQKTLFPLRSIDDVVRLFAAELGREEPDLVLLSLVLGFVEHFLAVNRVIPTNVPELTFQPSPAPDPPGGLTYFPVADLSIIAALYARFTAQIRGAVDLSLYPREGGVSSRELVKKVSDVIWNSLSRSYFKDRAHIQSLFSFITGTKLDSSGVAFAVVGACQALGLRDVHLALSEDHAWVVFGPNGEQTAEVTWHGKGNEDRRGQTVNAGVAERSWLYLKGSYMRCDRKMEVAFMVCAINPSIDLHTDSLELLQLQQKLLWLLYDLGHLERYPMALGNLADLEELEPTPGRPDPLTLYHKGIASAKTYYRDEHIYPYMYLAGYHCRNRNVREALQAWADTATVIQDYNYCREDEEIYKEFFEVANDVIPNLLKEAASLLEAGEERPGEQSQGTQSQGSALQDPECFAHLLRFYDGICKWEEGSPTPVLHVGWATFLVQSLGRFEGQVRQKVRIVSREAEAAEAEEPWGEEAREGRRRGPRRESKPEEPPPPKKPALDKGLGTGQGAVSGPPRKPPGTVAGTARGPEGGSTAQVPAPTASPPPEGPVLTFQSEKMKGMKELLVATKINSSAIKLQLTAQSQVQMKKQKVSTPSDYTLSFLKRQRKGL
In short: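 Compound was preincubated 30 min at room temperature with biotinylated menin (5 nM) and MLL-AF9-FLAG lysate from HEK293 cells, pH 7.4 buffer with 5% DMSO and DTT. Bead-based Alpha signal after 60 min with streptavidin donor and anti-FLAG acceptor beads; four-parameter logistic fit gave IC50.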

[2] = test system: human acute monocytic leukemia cell line MV-4-11; test: Assay 2: cell proliferation assay (ATP quantitation, CellTiter-Glo), MV-4-11; format: cell-based; settings: MV-4-11 cells
In short: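 Read-out is CellTiter-Glo luminescence quantifying ATP. Compound exposure lasted 72 h at 37° C., 5% CO2, with 1.67×10^4 MV-4-11 cells per well in 10% FBS medium, alongside HL-60 toxicity-control cells.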

Structure (SMILES)	IC50 [1]	EC50 ([2]; 72 h)	EC50 ([2]; Homo sapiens, MV4-11, 72 h)
CC(C)n1nccc1-c1cc(F)ccc1Oc1cncnc1N1CCC2(CCN(Cc3ccc4[nH]c(=O)[nH]c4c3)C2)C1 (single isomer, unassigned) [Example 197B, 5-((7-(5-(4-fluoro-2-(1-isopropyl-1H-pyrazol-5-yl)phenoxy)pyrimidin-4-yl)-2,7-diazaspiro[4.4]nonan-2-yl)methyl)-1,3-dihydro-2H-benzo[d]imidazol-2-one]	< 100 nM	< 100 nM	–
CCOC(=O)N(C)c1cc(F)ccc1Oc1cncnc1N1CCC2(CCN(Cc3ccc4[nH]c(=O)[nH]c4c3)C2)C1 (stereo not drawn) [Example 164, ethyl (5-fluoro-2-((4-(7-((2-oxo-2,3-dihydro-1H-benzo[d]imidazol-5-yl)methyl)-2,7-diazaspiro[4.4]nonan-2-yl)pyrimidin-5-yl)oxy)phenyl) (methyl)carbamate]	< 100 nM	–	100 to 1000 nM
COc1cc(F)ccc1Oc1cncnc1N1CCC2(CCN(Cc3ccc4[nH]c(=O)[nH]c4c3)C2)C1 (stereo not drawn) [Example 209, 5-((7-(5-(4-fluoro-2-methoxyphenoxy)pyrimidin-4-yl)-2,7-diazaspiro[4.4]nonan-2-yl)methyl)-1,3-dihydro-2H-benzo[d]imidazol-2-one]	< 100 nM	–	100 to 1000 nM
N#Cc1ccc(-c2cc(F)ccc2Oc2cncnc2N2CC3(CN(CC4CCC(O)CC4)C3)C2)c(C2CC2)c1 (stereo not drawn) [Example 151, 2-cyclopropyl-5′-fluoro-2′-((4-(6-((4-hydroxycyclohexyl)methyl)-2,6-diazaspiro[3.3]heptan-2-yl)pyrimidin-5-yl)oxy)-[1,1′-biphenyl]-4-carbonitrile]	< 100 nM	–	≥ 1000 nM
CCN(C(=O)c1cc(F)ccc1Oc1cncnc1N1CCC2(CCN(Cc3ccc4c(c3)[nH]c(=O)n4CCO)C2)C1)C(C)C (single isomer, unassigned) [Example 4A, N-ethyl-5-fluoro-2-((4-(7-((1-(2-hydroxyethyl)-2-oxo-2,3-dihydro-1H-benzo[d]imidazol-5-yl)methyl)-2,7-diazaspiro[4.4]nonan-2-yl)pyrimidin-5-yl)oxy)-N-isopropylbenzamide]	< 100 nM	–	< 100 nM
CC(C)c1ncncc1-c1cc(F)ccc1Oc1cncnc1N1CCC2(CCN(Cc3ccc4[nH]c(=O)[nH]c4c3)C2)C1 (single isomer, unassigned) [Example 160A, 5-((7-(5-(4-fluoro-2-(4-isopropylpyrimidin-5-yl)phenoxy)pyrimidin-4-yl)-2,7-diazaspiro[4.4]nonan-2-yl)methyl)-1,3-dihydro-2H-benzo[d]imidazol-2-one]	< 100 nM	–	< 100 nM
O=c1[nH]c2ccc(CN3CCC4(CCN(c5ncncc5Oc5ccc(F)cc5Cc5ccccc5)C4)C3)cc2[nH]1 (stereo not drawn) [Example 77]	< 100 nM	–	≥ 1000 nM
CC(C)N(C(=O)c1cc(F)ccc1Oc1cncnc1N1CC2(CCN(C(=O)CCc3ccc(F)cc3)C2)C1)C(C)C [Example 12, 5-fluoro-2-((4-(6-(3-(4-fluorophenyl)propanoyl)-2,6-diazaspiro[3.4]octan-2-yl)pyrimidin-5-yl)oxy)-N,N-diisopropylbenzamide]	< 100 nM	–	100 to 1000 nM
CCN(C(=O)C(C)C)c1cc(F)ccc1Oc1cncnc1N1CC2(CCN(CC3CCC(F)(F)CC3)C2)C1 [Example 137, N-(2-((4-(6-((4,4-difluorocyclohexyl)methyl)-2,6-diazaspiro[3.4]octan-2-yl)pyrimidin-5-yl)oxy)-5-fluorophenyl)-N-ethylisobutyramide]	< 100 nM	–	100 to 1000 nM
COc1ccc(CC(=O)N2CC3(C2)CN(c2ncncc2Oc2ccc(F)cc2-c2cncnc2C(C)C)C3)cn1 [Example 132, 1-(6-(5-(4-fluoro-2-(4-isopropylpyrimidin-5-yl)phenoxy)pyrimidin-4-yl)-2,6-diazaspiro[3.3]heptan-2-yl)-2-(6-methoxypyridin-3-yl)ethan-1-one]	< 100 nM	–	100 to 1000 nM
CC(C)C1CCC(=O)N1c1cc(F)ccc1Oc1cncnc1N1CCC2(CCN(Cc3ccc4[nH]c(=O)[nH]c4c3)C2)C1 (stereo not drawn) [Example 218, 5-((7-(5-(4-fluoro-2-(2-isopropyl-5-oxopyrrolidin-1-yl)phenoxy)pyrimidin-4-yl)-2,7-diazaspiro[4.4]nonan-2-yl)methyl)-1,3-dihydro-2H-benzo[d]imidazol-2-one]	< 100 nM	–	≥ 1000 nM
CC(C)N(C(=O)c1cc(F)ccc1Oc1cncnc1N1CCC2(CC(N)C(Cc3ccc4[nH]c(=O)[nH]c4c3)C2)C1)C(C)C (single isomer, unassigned) [Example 24A, 2-((4-(7-amino-8-((2-oxo-2,3-dihydro-1H-benzo[d]imidazol-5-yl)methyl)-2-azaspiro[4.4]nonan-2-yl)pyrimidin-5-yl)oxy)-5-fluoro-N,N-diisopropylbenzamide]	< 100 nM	–	≥ 1000 nM
CC(C)N(C)C(=O)c1cc(F)ccc1Oc1cncnc1N1CCC2(CCN(Cc3ccc4c(C#N)n[nH]c4c3)C2)C1 (stereo not drawn) [Example 146, 2-((4-(7-((3-cyano-1H-indazol-6-yl)methyl)-2,7-diazaspiro[4.4]nonan-2-yl)pyrimidin-5-yl)oxy)-5-fluoro-N-isopropyl-N-methylbenzamide]	< 100 nM	–	100 to 1000 nM
CC1(C)C(=O)Nc2cc(CN3CCC4(CCN(c5ncncc5Oc5ccc(F)cc5OC5CCCC5)C4)C3)ccc21 (stereo not drawn) [Example 193, 6-((7-(5-(2-(cyclopentyloxy)-4-fluorophenoxy)pyrimidin-4-yl)-2,7-diazaspiro[4.4]nonan-2-yl)methyl)-3,3-dimethylindolin-2-one]	< 100 nM	–	< 100 nM
CC(C)(C)OC(=O)N[C@H]1CC[C@H](CN2CCC3(CCN(c4ncncc4Oc4ccc(F)cc4OC4CCCC4)C3)C2)CC1 (stereo partly drawn) [Example 147, tert-butyl ((1r,4r)-4-((7-(5-(2-(cyclopentyloxy)-4-fluorophenoxy)pyrimidin-4-yl)-2,7-diazaspiro[4.4]nonan-2-yl)methyl)cyclohexyl) carbamate]	< 100 nM	–	≥ 1000 nM
CC(=O)N[C@H]1CC[C@H](CCN2CC3(C2)CN(c2ncncc2Oc2ccc(F)cc2-c2ccc(C#N)cc2C2CC2)C3)CC1 [Example 143, N-((1r,4r)-4-(2-(6-(5-((4′-cyano-2′-cyclopropyl-5-fluoro-[1,1′-biphenyl]-2-yl)oxy)pyrimidin-4-yl)-2,6-diazaspiro[3.3]heptan-2-yl)ethyl)cyclohexyl) acetamide]	< 100 nM	–	≥ 1000 nM
NC(=O)c1ccc2c(CN3CCC4(CCN(c5ncncc5Oc5ccc(F)cc5OCC5CC5)C4)C3)c[nH]c2c1 (stereo not drawn) [Example 200, 3-((7-(5-(2-(cyclopropylmethoxy)-4-fluorophenoxy)pyrimidin-4-yl)-2,7-diazaspiro[4.4]nonan-2-yl)methyl)-1H-indole-6-carboxamide]	< 100 nM	–	100 to 1000 nM
CC(C)N(C)Cc1cc(F)ccc1Oc1cncnc1N1CCC2(CCN(Cc3ccc4[nH]c(=O)[nH]c4c3)C2)C1 (stereo not drawn) [Example 135, 5-((7-(5-(4-fluoro-2-((isopropyl(methyl)amino)methyl)phenoxy)pyrimidin-4-yl)-2,7-diazaspiro[4.4]nonan-2-yl)methyl)-1,3-dihydro-2H-benzo[d]imidazol-2-one]	< 100 nM	–	≥ 1000 nM
Cn1c(-c2cc(F)ccc2Oc2cncnc2N2CC3(CCN(C[C@H]4CC[C@H](NC(=O)C(F)(F)F)CC4)CC3)C2)c(C2CC2)ccc1=O [Example 79, N-((1r,4r)-4-((2-(5-(2-(3-cyclopropyl-1-methyl-6-oxo-1,6-dihydropyridin-2-yl)-4-fluorophenoxy)pyrimidin-4-yl)-2,7-diazaspiro[3.5]nonan-7-yl)methyl)cyclohexyl)-2,2,2-trifluoroacetamide]	< 100 nM	–	< 100 nM
CC1(C)C(=O)Nc2cc(CN3CCC4(CCN(c5ncncc5Oc5ccc(F)cc5-c5ccc(C#N)cc5C5CC5)C4)C3)ccc21 (stereo not drawn) [Example 205, 2-cyclopropyl-2′-((4-(7-((3,3-dimethyl-2-oxoindolin-6-yl)methyl)-2,7-diazaspiro[4.4]nonan-2-yl)pyrimidin-5-yl)oxy)-5′-fluoro-[1,1′-biphenyl]-4-carbonitrile]	< 100 nM	–	< 100 nM
CC(C)c1ncncc1-c1cc(F)ccc1Oc1cncnc1N1CCC2(CCN(CC(C)(C)O)C2)C1 (stereo not drawn) [Example 176, 1-(7-(5-(4-fluoro-2-(4-isopropylpyrimidin-5-yl)phenoxy)pyrimidin-4-yl)-2,7-diazaspiro[4.4]nonan-2-yl)-2-methylpropan-2-ol]	< 100 nM	–	≥ 1000 nM

Reference: US12312359B2 (Vitae Pharmaceuticals, LLC, priority 2016, dated 2025)
